Measured values from PMC5654082 (Malaria Journal, 2017).
Counter-ions that a name gives are not always drawn. Like-named read-outs stand apart in the source and are kept apart here. Marks after values point to notes of the source that are not given here.

What was measured:
[1] = target: T1, human OCT1 (Homo sapiens, UniProt O15245); assay: Inhibition of OCT1-mediated ASP uptake in transduced HEK293 cells; type: cell-based; conditions: 50 µM anti-malarial, 10 µM ASP, 10 min, 37 °C; relative to solvent control fixed at 100%
T1 construct: host or cells: HEK293, baculovirus transduction (CMV promoter), transient
T1 sequence (O15245 1-554): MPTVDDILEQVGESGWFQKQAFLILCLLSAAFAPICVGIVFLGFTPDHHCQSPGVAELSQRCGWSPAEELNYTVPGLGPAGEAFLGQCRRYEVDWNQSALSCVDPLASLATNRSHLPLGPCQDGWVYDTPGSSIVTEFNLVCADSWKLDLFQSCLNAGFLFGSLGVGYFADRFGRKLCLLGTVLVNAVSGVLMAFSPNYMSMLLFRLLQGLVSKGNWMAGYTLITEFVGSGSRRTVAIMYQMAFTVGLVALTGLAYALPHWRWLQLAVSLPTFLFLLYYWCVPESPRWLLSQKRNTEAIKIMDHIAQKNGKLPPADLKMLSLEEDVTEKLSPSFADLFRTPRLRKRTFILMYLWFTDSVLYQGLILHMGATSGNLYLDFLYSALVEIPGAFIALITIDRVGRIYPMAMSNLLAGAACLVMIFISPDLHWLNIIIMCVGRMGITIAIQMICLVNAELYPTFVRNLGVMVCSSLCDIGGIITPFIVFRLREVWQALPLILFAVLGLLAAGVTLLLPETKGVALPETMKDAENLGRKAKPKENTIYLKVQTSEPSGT
Protocol: (§1) HEK293 cells were modified to transiently express (a combination of) human OCT1, OCT2, MATE1, MATE2-K, or eYFP. Briefly, cDNA of the respective genes was cloned downstream of a CMV promoter into a baculovirus, of which passage three was used to transduce HEK293 cells. These cells were seeded in poly-D-lysine coated 24- or 96-wells plates and grown in a 37 °C incubator at 5% CO2. Growth was initiated at ~ 25% confluency using 375 or 125 μL cell and complete medium (DMEM + GlutaMAX™-I supplemented with 10% fetal bovine serum) suspension per well, respectively. After 24 h, cells were transduced with 30 µL virus (10 µL virus + 20 µL complete medium in case of 96-wells plates) or 2 × 15 µL virus for cells that required simultaneous expression of two transporters. Finally, 195 µL sodium butyrate (45 µL for 96-wells plates) was added to a final concentration of 2 mM to enhance protein expression.
AMO (10 mM), ASP (1 mM), CQ (10 mM), PQ (10 mM) and PG (10 mM) were dissolved in MilliQ water. ART (10 mM), ATO (10 mM), DHA (10 mM), LUM (10 mM), MQ (10 mM), NMQ (20 mM), PYR (10 mM), QN (10 mM) were dissolved in DMSO. All compound stocks were stored at − 20 °C. Inhibition of OCT1- or OCT2-mediated ASP uptake by anti-malarials was performed in poly-D-lysine coated 96-wells plates 2 or 3 days following HEK293 cell transduction. In short, cells were washed with 125 µL 37 °C HBSS containing 10 mM HEPES, pH 7.4. Then, a 50 µL mixture of ASP (10 µM) and anti-malarial compound (25, 50 or 100 µM) in HBSS buffer (pH 7.4) was added to each well and incubated for 10 min at 37 °C. ASP transport was stopped by washing with 125 µL ice-cold HBSS-HEPES buffer supplemented with 0.5% BSA. Following a second wash with 125 µL ice-cold HBSS-HEPES buffer, cells were lysed with 125 µL 1 M NaOH and ASP was excited at a wavelength of 485 nm and fluorescence was detected at an emission wavelength of 535 nm using the Victor X3 multimode plate reader.
(§2) For each compound, a range of seven concentrations was used to determine the concentration at which ASP uptake was inhibited half maximally (IC50). At least three independent experiments (4 for QN) were performed for each drug in triplicate as described above. Inhibition curves were plotted by nonlinear regression analyses of the data using GraphPad Prism version 5.03. […] To generate the final dose–response inhibition curve per anti-malarial, percentage of uptake was averaged for each drug concentration per experiment and the resulting mean ± SEM corresponding to three or four independent experiments were plotted.

[2] = target: T2, human OCT2 (Homo sapiens, UniProt O15244); assay: Inhibition of OCT2-mediated ASP uptake in transduced HEK293 cells; type: cell-based
T2 construct: host or cells: HEK293, baculovirus transduction (CMV promoter), transient
T2 sequence (O15244 1-555): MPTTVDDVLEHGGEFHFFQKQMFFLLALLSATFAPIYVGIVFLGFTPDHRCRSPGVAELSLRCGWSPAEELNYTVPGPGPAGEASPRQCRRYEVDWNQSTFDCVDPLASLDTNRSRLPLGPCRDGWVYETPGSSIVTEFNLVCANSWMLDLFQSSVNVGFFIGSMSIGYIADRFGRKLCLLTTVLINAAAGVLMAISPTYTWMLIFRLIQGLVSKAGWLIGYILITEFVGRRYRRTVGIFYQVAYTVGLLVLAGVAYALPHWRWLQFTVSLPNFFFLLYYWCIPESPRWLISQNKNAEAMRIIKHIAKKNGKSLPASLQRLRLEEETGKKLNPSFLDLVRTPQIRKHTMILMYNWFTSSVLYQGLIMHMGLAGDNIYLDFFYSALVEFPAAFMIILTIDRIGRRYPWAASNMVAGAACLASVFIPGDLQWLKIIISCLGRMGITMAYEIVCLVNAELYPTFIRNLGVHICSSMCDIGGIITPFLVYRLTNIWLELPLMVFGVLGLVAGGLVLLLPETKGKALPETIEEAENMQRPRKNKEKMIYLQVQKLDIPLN
Protocol: as §1, with “Growth was initiated at ~ 25% confluency using 375 or 125 μL cell and complete medium (DMEM + GlutaMAX™-I supplemented with 10% fetal bovine serum) suspension per well, respectively.” left out
AMO (10 mM), ASP (1 mM), CQ (10 mM), PQ (10 mM) and PG (10 mM) were dissolved in MilliQ water. ART (10 mM), ATO (10 mM), DHA (10 mM), LUM (10 mM), MQ (10 mM), NMQ (20 mM), PYR (10 mM), QN (10 mM) were dissolved in DMSO. All compound stocks were stored at − 20 °C. Inhibition of OCT1- or OCT2-mediated ASP uptake by anti-malarials was performed in poly-D-lysine coated 96-wells plates 2 or 3 days following HEK293 cell transduction. In short, cells were washed with 125 µL 37 °C HBSS containing 10 mM HEPES, pH 7.4. […] ASP transport was stopped by washing with 125 µL ice-cold HBSS-HEPES buffer supplemented with 0.5% BSA.
as §2, with “above.” for “above. Inhibition curves were plotted by nonlinear regression analyses of the data using GraphPad Prism version 5.03.”

[3] = Maximum plasma concentration from in vivo pharmacokinetic studies after therapeutic dosing; conditions: human, the literature Cmax (ng/mL) of Table 2 expressed in µM
Excerpt: As Cmax the (geometric) mean or median maximum plasma concentrations obtained from previous in vivo pharmacokinetic studies after therapeutic dosing was used.

[4] = Ugandan children aged 5–13 years with uncomplicated malaria; (geometric) mean or median; cited from earlier work
[5] = cited from earlier work
[6] = target: T1, human OCT1; assay: OCT1-mediated cellular import in transduced HEK293 cells (LC-MS/MS); type: cell-based; conditions: 10 µM, 15 min, 37 °C
Protocol: as §1
HEK293 cells were seeded in 24-wells poly-D-lysine coated plates and transduced the subsequent day with OCT1 or OCT2 as described above. Three days following transduction, OCT1- or OCT2-mediated uptake of ten anti-malarials (AMO, ART, ATO, CQ, DHA, LUM, MQ, PQ, PG, and QN) was performed. NMQ served as a positive substrate for both OCT1 and OCT2 import. In short, cells were washed with 400 µL 37 °C HBSS-HEPES buffer followed by adding 150 µL HBSS buffer with 10 µM anti-malarial or NMQ to each well. After incubation for 15 min at 37 °C, import was stopped by washing with 400 µL ice-cold HBSS-HEPES buffer supplemented with 0.5% BSA. Following a second wash with 400 µL ice-cold HBSS-HEPES buffer, cells were lysed with 200 µL 50% (v/v) MeOH and 0.1% (v/v) formic acid (HCOOH) in water and samples were sent for quantification by mass spectrometry analysis (see “LC–MS/MS quantification of anti-malarials” section). […]
(§3) The affinity (KM) and maximum transport rate (Vmax) for OCT1 and OCT2 of PG were determined by analysing concentration-dependent uptake data from three independent experiments.
(§4) Import and export of PG and cycloguanil (CG) was assessed by single and double transduced HEK293 cells. […] Following the same procedure as for the cellular import assay described above, the import of 100 µM PG and CG was measured after 5 min incubation and data was plotted as mean pmol/mg/min ± SEM. […] Significant reduction in uptake (i.e. export by MATEs) was determined using ln transformation and a one-way repeated measures ANOVA with Dunnet’s post test.
Anti-malarial concentration in the cell lysates was quantified using an LC–MS/MS system consisting of a UPLC, a binary solvent manager, a vacuum degasser and an autosampler, coupled to a Xevo TQ-S micro triple quadrupole mass spectrometer. […]

[7] = target: T2, human OCT2; assay: OCT2-mediated cellular import in transduced HEK293 cells (LC-MS/MS); type: cell-based; conditions: 10 µM, 15 min, 37 °C
Protocol: as §1
HEK293 cells were seeded in 24-wells poly-D-lysine coated plates and transduced the subsequent day with OCT1 or OCT2 as described above. Three days following transduction, OCT1- or OCT2-mediated uptake of ten anti-malarials (AMO, ART, ATO, CQ, DHA, LUM, MQ, PQ, PG, and QN) was performed. […] Following a second wash with 400 µL ice-cold HBSS-HEPES buffer, cells were lysed with 200 µL 50% (v/v) MeOH and 0.1% (v/v) formic acid (HCOOH) in water and samples were sent for quantification by mass spectrometry analysis (see “LC–MS/MS quantification of anti-malarials” section). […]
as §3
as §4, with “test. […]” for “test.”

[8] = substrate: [H]/N=C(\N/C(=N/[H])Nc1ccc(Cl)cc1)NC(C)C; assay: OCT1-mediated cellular import in transduced HEK293 cells (LC-MS/MS); type: cell-based, human; conditions: other: 1 min incubation, 37 °C, 2.0–16 µM, pH 7.4
Protocol: HEK293 cells were modified to transiently express (a combination of) human OCT1, OCT2, MATE1, MATE2-K, or eYFP. Briefly, cDNA of the respective genes was cloned downstream of a CMV promoter into a baculovirus, of which passage three was used to transduce HEK293 cells. These cells were seeded in poly-D-lysine coated 24- or 96-wells plates and grown in a 37 °C incubator at 5% CO2. Growth was initiated at ~ 25% confluency using 375 or 125 μL cell and complete medium (DMEM + GlutaMAX™-I supplemented with 10% fetal bovine serum) suspension per well, respectively. […]
HEK293 cells were seeded in 24-wells poly-D-lysine coated plates and transduced the subsequent day with OCT1 or OCT2 as described above. […] Following a second wash with 400 µL ice-cold HBSS-HEPES buffer, cells were lysed with 200 µL 50% (v/v) MeOH and 0.1% (v/v) formic acid (HCOOH) in water and samples were sent for quantification by mass spectrometry analysis (see “LC–MS/MS quantification of anti-malarials” section). […]
as §3
Import and export of PG and cycloguanil (CG) was assessed by single and double transduced HEK293 cells. […]

[9] = 50 µM anti-malarial, 10 µM ASP, 10 min, 37 °C, relative to solvent control fixed at 100%

With CCN(CC)Cc1cc(Nc2ccnc3cc(Cl)ccc23)ccc1O [Amodiaquine, amodiaquine dihydrochloride dehydrate] the “Relative ASP uptake (OCT1-mediated)” value [1] was 67 ± 4%, the IC50 ([2]; 10 µM ASP, 10 min, 37 °C, seven concentrations) was 11 µM and the “Relative ASP uptake (OCT2-mediated)” value [2, 9] was 12.1 ± 0.6%. For the same molecule, the Cmax [3] was 0.015 µM, the Cmax [4] was 5.2^c [45] ng/mL and the Unbound fraction [5] was 0.1 [46].

With C[C@@H]1CC[C@H]2[C@@H](C)C(=O)O[C@@H]3O[C@@]4(C)CC[C@@H]1[C@]32OO4 [Artemisinin, artemisinin] the “Relative ASP uptake (OCT2-mediated)” value [2, 9] was 61 ± 13%.

In the case of CCN(CC)CCCC(C)Nc1ccnc2cc(Cl)ccc12 (centres unmarked) [Chloroquine, chloroquine diphosphate], the “Relative ASP uptake (OCT2-mediated)” value [2] is reported as 48 ± 11%.

In the case of OC(c1cc(C(F)(F)F)nc2c(C(F)(F)F)cccc12)C1CCCCN1 (centres unmarked) [Mefloquine, mefloquine hydrochloride], the “Relative ASP uptake (OCT1-mediated)” value [1] is reported as 150 ± 21%.

In the case of C=C[C@H]1C[N+]2(C)CC[C@H]1C[C@@H]2[C@@H](O)c1ccnc2ccc(OC)cc12 [NMQ, N-methyl-quinidine], the “Uptake by OCT1, percentage of mock-transduced control” value [6] is reported as “taken up” and the “Uptake by OCT2, percentage of mock-transduced control” value [7] is reported as “taken up”.

In the case of COc1cc(NC(C)CCCN)c2ncccc2c1 (centres unmarked) [Primaquine, primaquine diphosphate], the “Relative ASP uptake (OCT1-mediated)” value [1] is reported as 59 ± 3% and the “Relative ASP uptake (OCT2-mediated)” value [2, 9] is reported as 60 ± 7%.

B1: human OCT1 (Homo sapiens) (protein)
chain: T1 sequence (O15245 1-554)
notes: host or cells: HEK293, baculovirus transduction (CMV promoter), transient
B1 showed a Km [8] of 8.1 µM.
